Series [1] can be described thus: Solubility in 100 mM bistrispropane buffer at pH 6.5 incubated for 18 hrs by UPLC analysis. It is filed as physicochemical.
A short description of series [2]: Solubility in 100 mM bistrispropane buffer at pH 7.0 incubated for 18 hrs by UPLC analysis. It is filed as physicochemical.
Series [3] addresses T1, Amylin receptor AMY3; CALCR/RAMP3 (Homo sapiens, UniProt O60896+P30988).
T1 sequence (P30988 whole entry): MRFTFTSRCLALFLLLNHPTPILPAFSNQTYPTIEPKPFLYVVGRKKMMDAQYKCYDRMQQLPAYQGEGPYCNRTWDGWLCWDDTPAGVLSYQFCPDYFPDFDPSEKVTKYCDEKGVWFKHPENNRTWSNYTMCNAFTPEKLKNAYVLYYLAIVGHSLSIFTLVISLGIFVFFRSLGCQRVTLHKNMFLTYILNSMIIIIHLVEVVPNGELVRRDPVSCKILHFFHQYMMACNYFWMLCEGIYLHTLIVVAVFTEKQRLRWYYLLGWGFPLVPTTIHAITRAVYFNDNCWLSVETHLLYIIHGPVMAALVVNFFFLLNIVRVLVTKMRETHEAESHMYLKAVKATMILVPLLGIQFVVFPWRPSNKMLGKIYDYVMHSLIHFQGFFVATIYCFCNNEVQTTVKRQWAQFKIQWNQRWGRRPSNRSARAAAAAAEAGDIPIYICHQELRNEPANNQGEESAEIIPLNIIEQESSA
T1 sequence (O60896 whole entry): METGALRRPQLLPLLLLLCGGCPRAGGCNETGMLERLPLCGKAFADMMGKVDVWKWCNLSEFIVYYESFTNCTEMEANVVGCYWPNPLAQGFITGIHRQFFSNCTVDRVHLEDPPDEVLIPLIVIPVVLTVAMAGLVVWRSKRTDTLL
Description: Displacement of [125I]-labeled rat amylin from human amylin receptor expressed in BHK tkts13 whole cells co-expressing RAMP3 incubated for 60 mins by scintillation proximity assay. It is filed as cell-based.

The target of series [4] is T2, Calcitonin receptor (Homo sapiens, UniProt P30988).
T2 sequence (P30988 whole entry): T1 sequence (P30988 whole entry)
Description: Agonist activity at human calcitonin receptor expressed in BHK570 cells assessed as increase in intracellular cAMP concentration incubated for 3 hrs in absence of albumin by CRE luciferase reporter gene assay. The series is classed as functional, cell-based. For orientation: Reporter assays use an easily measured gene product as a stand-in for the process of interest.

Series [5] is described as follows: Solubility in 100 mM glycylglycine buffer at pH 4.0 incubated for 18 hrs by UPLC analysis. The series is classed as physicochemical.
Series [6] can be described thus: Solubility in 100 mM bistrispropane buffer at pH 7.5 incubated for 18 hrs by UPLC analysis. The series is classed as physicochemical.
A short description of series [7]: Solubility in 100 mM bistrispropane buffer at pH 6.0 incubated for 18 hrs by UPLC analysis. The series is classed as physicochemical.
Series [8] is described as follows: Solubility in 100 mM bistrispropane buffer at pH 8.0 incubated for 18 hrs by UPLC analysis. The series is classed as physicochemical.
Series [9] can be described thus: Solubility in 100 mM glycylglycine buffer at pH 5.0 incubated for 18 hrs by UPLC analysis. The series is classed as physicochemical.
The target in series [10] is T1, Amylin receptor AMY3; CALCR/RAMP3. Put plainly: Agonist activity at human amylin receptor expressed in BHK570 cells co-expressing RAMP3 assessed as increase in intracellular cAMP concentration incubated for 3 hrs in absence of albumin by CRE luciferase reporter gene assay. The series is classed as functional, cell-based.
Series [11] is described as follows: Solubility in 100 mM glycylglycine buffer at pH 3.0 incubated for 18 hrs by UPLC analysis. It is filed as physicochemical.

Here are results for five molecules from ChEMBL document CHEMBL4420076, “Amylin and calcitonin receptor agonist” (2017).

One may read the solubility as the concentration that dissolves in the medium under given conditions. Usually IC50 stands for the concentration at which inhibition is half-maximal. In general, EC50 refers to the concentration at which the effect is half-maximal.

The structures appear in SMILES notation. Numbered stars: 1 amine (or outer) side, 2 acyl side, 3 side chain; on linkers, the order of the positions; unused ones are H or OH. Peptide text beside a SMILES is read from it. * marks the point of attachment. C20 diacid = O=C(O)CCCCCCCCCCCCCCCCCCC(=O)*; C18 diacid = O=C(O)CCCCCCCCCCCCCCCCC(=O)*; γGlu = O=C(O)[C@H](CCC(=O)[*:2])N[*:1] Where only a bound is given, the exact number is not on record here.

Regarding `CC(C)C[C@H](NC(=O)[C@H](C)NC(=O)[C@H](C)NC(=O)[C@@H](NC(=O)[C@H](CO)NC(=O)[C@H](CC(C)C)NC(=O)[C@H](CCC(N)=O)NC(=O)[C@H](CO)NC(=O)[C@H](C)NC(=O)CC[C@H](NC(=O)CCCCCCCCCCCCCCCCC(=O)O)C(=O)O)[C@@H](C)O)C(=O)NCC(=O)N[C@@H](CCCNC(=N)N)C(=O)N[C@@H](CC(C)C)C(=O)N[C@@H](CO)C(=O)N[C@@H](C)C(=O)N[C@@H](CCC(N)=O)C(=O)N[C@@H](CC(C)C)C(=O)N[C@@H](Cc1cnc[nH]1)C(=O)N[C@@H](CCC(=O)O)C(=O)N[C@@H](CC(C)C)C(=O)N[C@@H](C)C(=O)N[C@H](C(=O)N[C@@H](CC(C)C)C(=O)N1CCC[C@H]1C(=O)N[C@@H](CCCNC(=N)N)C(=O)N[C@H](C(=O)N[C@@H](CCC(=O)O)C(=O)N[C@H](C(=O)NCC(=O)N[C@@H](CO)C(=O)NCC(=O)N[C@@H](CO)C(=O)N1CCC[C@H]1C(N)=O)[C@@H](C)O)[C@@H](C)O)[C@@H](C)O` ({C18 diacid-γGlu}-ASQLSTAALGRLSAQLHELATLPRTETGSGSP-NH2), the solubility at 18 h in [1], in series [2], in [5], in series [6], in series [7] and in series [8] was at least 200 µM in each case. Besides, the solubility at 18 h in [9] and in series [11] was at least 200 µM throughout. Also, the IC50 in series [3] was 428 pM. The figures for the EC50 in [4] and in series [10] were 13 pM and 9 pM, respectively.

For the molecule `CC(C)C[C@H](NC(=O)[C@H](CCC(=O)O)NC(=O)[C@H](Cc1cnc[nH]1)NC(=O)[C@H](CC(C)C)NC(=O)[C@H](CCC(=O)O)NC(=O)[C@H](C)NC(=O)[C@H](CO)NC(=O)[C@H](CC(C)C)NC(=O)[C@H](CCCNC(=N)N)NC(=O)CNC(=O)[C@H](CC(C)C)NC(=O)[C@@H](NC(=O)[C@H](C)NC(=O)[C@@H](NC(=O)[C@H](CO)NC(=O)[C@H](CC(C)C)NC(=O)[C@H](CCC(=O)O)NC(=O)[C@H](CO)NC(=O)[C@H](C)NC(=O)[C@H](CCC(=O)O)NC(=O)CCCCCCCCCCCCCCCCC(=O)O)[C@@H](C)O)C(C)C)C(=O)N[C@@H](C)C(=O)N[C@H](C(=O)N[C@@H](CC(C)C)C(=O)N1CCC[C@H]1C(=O)N[C@@H](CCCNC(=N)N)C(=O)N[C@H](C(=O)N[C@@H](CCC(=O)O)C(=O)N1CCC[C@H]1C(=O)NCC(=O)N1CCC[C@H]1C(=O)N[C@@H](CCC(=O)O)C(=O)N[C@@H](CO)C(=O)N1CCC[C@H]1C(N)=O)[C@@H](C)O)[C@@H](C)O` ({C18 diacid}-EASELSTAVLGRLSAELHELATLPRTEPGPESP-NH2), the solubility at 18 h in series [1], in [2], in series [5], in [6], in series [7] and in [8] was at least 200 µM throughout. Moreover, the solubility at 18 h in [9] and in series [11] was at least 200 µM throughout. Moreover, in series [3], the IC50 was 9000 pM. For the same molecule, the EC50 was 12 pM in series [4] and 31 pM in series [10].

Consider `CC[C@H](C)[C@H](NC(=O)[C@H](CCC(=O)O)NC(=O)[C@H](Cc1cnc[nH]1)NC(=O)[C@H](CC(C)C)NC(=O)[C@H](CCC(=O)O)NC(=O)[C@H](C)NC(=O)[C@H](CO)NC(=O)[C@H](CC(C)C)NC(=O)[C@H](CCCNC(=N)N)NC(=O)CNC(=O)[C@H](CC(C)C)NC(=O)[C@H](C)NC(=O)[C@H](C)NC(=O)[C@@H](NC(=O)[C@H](CO)NC(=O)[C@H](CC(C)C)NC(=O)[C@H](CCC(=O)O)NC(=O)[C@H](CO)NC(=O)[C@H](C)NC(=O)[C@H](CCC(=O)O)NC(=O)CCCCCCCCCCCCCCCCC(=O)O)[C@@H](C)O)C(=O)N[C@@H](C)C(=O)N[C@H](C(=O)N[C@@H](CC(C)C)C(=O)N1CCC[C@H]1C(=O)N[C@@H](CCCNC(=N)N)C(=O)N[C@H](C(=O)N[C@@H](CCC(=O)O)C(=O)N[C@H](C(=O)NCC(=O)N1CCC[C@H]1C(=O)N[C@@H](CCC(=O)O)C(=O)N[C@@H](CO)C(=O)N1CCC[C@H]1C(N)=O)[C@@H](C)O)[C@@H](C)O)[C@@H](C)O` ({C18 diacid}-EASELSTAALGRLSAELHEIATLPRTETGPESP-NH2), for which the solubility at 18 h in [1], in series [2], in [5], in series [6], in series [7] and in series [8] was at least 200 µM each time. Further, the solubility at 18 h in [9] and in series [11] was at least 200 µM each time. Further, the concentration for half-maximal inhibition (IC50) in series [3] is 511 pM. Further, the EC50 in series [4] is 5 pM; in series [10], 6 pM.

On to `CC(C)C[C@H](NC(=O)[C@H](C)NC(=O)[C@H](C)NC(=O)[C@@H](NC(=O)[C@H](CO)NC(=O)[C@H](CC(C)C)NC(=O)[C@H](CCC(=O)O)NC(=O)[C@H](CO)NC(=O)[C@H](C)NC(=O)CC[C@H](NC(=O)CCCCCCCCCCCCCCCCCCC(=O)O)C(=O)O)[C@@H](C)O)C(=O)NCC(=O)N[C@@H](Cc1cnc[nH]1)C(=O)N[C@@H](CC(C)C)C(=O)N[C@@H](CO)C(=O)N[C@@H](C)C(=O)N[C@@H](CCC(=O)O)C(=O)N[C@@H](CC(C)C)C(=O)N[C@@H](Cc1cnc[nH]1)C(=O)N[C@@H](CCC(=O)O)C(=O)N[C@@H](CC(C)C)C(=O)N[C@@H](C)C(=O)N[C@H](C(=O)N[C@@H](CC(C)C)C(=O)N1CCC[C@H]1C(=O)N[C@@H](Cc1cnc[nH]1)C(=O)N[C@H](C(=O)N[C@@H](CCC(=O)O)C(=O)N[C@H](C(=O)NCC(=O)N[C@H](C(=O)NCC(=O)N[C@H](C(=O)N1CCC[C@H]1C(N)=O)[C@@H](C)O)[C@@H](C)O)[C@@H](C)O)[C@@H](C)O)[C@@H](C)O` ({C20 diacid-γGlu}-ASELSTAALGHLSAELHELATLPHTETGTGTP-NH2), for which the solubility at 18 h in series [1], in [2], in series [5], in series [6], in series [7] and in [8] was at least 200 µM throughout. Besides, the solubility at 18 h in series [9] and in [11] was at least 200 µM throughout. Also, the concentration for half-maximal inhibition (IC50) in [3] is 1510 pM. Also, the 50% effective concentration (EC50) in [4] is 24 pM; in series [10], 64 pM.

For the molecule `CC(C)C[C@H](NC(=O)[C@H](CCC(=O)O)NC(=O)[C@H](Cc1cnc[nH]1)NC(=O)[C@H](CC(C)C)NC(=O)[C@H](CCC(=O)O)NC(=O)[C@H](C)NC(=O)[C@H](CO)NC(=O)[C@H](CC(C)C)NC(=O)[C@H](CCCNC(=N)N)NC(=O)CNC(=O)[C@H](CC(C)C)NC(=O)[C@@H](NC(=O)[C@H](C)NC(=O)[C@@H](NC(=O)[C@H](CO)NC(=O)[C@@H](NC(=O)[C@H](CCC(=O)O)NC(=O)[C@H](CO)NC(=O)[C@H](C)NC(=O)CC[C@H](NC(=O)CCCCCCCCCCCCCCCCC(=O)O)C(=O)O)C(C)C)[C@@H](C)O)C(C)C)C(=O)N[C@@H](C)C(=O)N[C@H](C(=O)N[C@@H](CC(C)C)C(=O)N1CCC[C@H]1C(=O)N[C@@H](CCCNC(=N)N)C(=O)N[C@H](C(=O)N[C@@H](CCC(=O)O)C(=O)N[C@H](C(=O)NCC(=O)N[C@@H](CO)C(=O)NCC(=O)N[C@@H](CO)C(=O)N1CCC[C@H]1C(N)=O)[C@@H](C)O)[C@@H](C)O)[C@@H](C)O` ({C18 diacid-γGlu}-ASEVSTAVLGRLSAELHELATLPRTETGSGSP-NH2), the solubility at 18 h in series [1], in [2], in series [5], in series [6], in series [8] and in [9] was at least 200 µM each time. Moreover, in series [11], the solubility at 18 h was at least 200 µM. For the same molecule, in series [3], the 50% inhibitory concentration (IC50) is 812 pM. The EC50 in series [4] is 13 pM; in series [10], 32 pM.
